Measured values as given in patent US20090136578A1, “Pharmaceutical Composition Comprising Perindopril or Its Salts” (LEK Pharmaceutical d.d., priority 2005, published 2009).

Tests used:
Format in all cases: physicochemical
[1] = Stress stability of binary mixture perindopril erbumine:Avicel 1:2, HPLC degradation products; conditions: binary mixture with Avicel 1:2
Experimental: (§1) For the comparative tests, samples of perindopril erbumine with different particle size were mixed with some common pharmaceutically acceptable excipients in binary or ternary mixtures. Pharmaceutical compositions, particularly tablets, with perindopril erbumine having different particle size were prepared as well. Binary and ternary mixtures and tablets were exposed to the stress condition, e.g. 60° C. for 14 days or 40° C./75% relative humidity for 1 month. Degradation products of perindopril were determined using HPLC method as described in European Pharmacopea 5.0 (January 2005, monograph for Perindopril tert-butylamine—pages 2210-2212).
Samples of perindopril erbumine having large or small particles were mixed with microcrystalline cellulose (Avicel) into the binary mixtures having a ratio perindopril erbumine:Avicel=1:2. Binary mixtures were closed into vials and exposed to the stress condition of 60° C. for 14 days. Degradation products (impurities B and F) of perindopril were determined using HPLC method as described in European Pharmacopea 5.0 (p. 2210-2212).

[2] = Stress stability of binary mixture perindopril erbumine:anhydrous lactose 1:2, HPLC degradation products; conditions: binary mixture with anhydrous lactose 1:2
Experimental: as §1
Samples of perindopril erbumine having large or small particles were mixed with anhydrous lactose into the binary mixtures having a ratio perindopril erbumine:anhydrous lactose=1:2. Binary mixtures were closed into vials and exposed to the stress condition of 60° C. for 14 days. Degradation products (impurities B and F) of perindopril were determined using HPLC method as described in European Pharmacopea 5.0 (p. 2210-2212).

[3] = Stress stability of binary mixture perindopril erbumine:Aerosil 15:1, HPLC degradation products; conditions: binary mixture with Aerosil 15:1
Experimental: (§2) For the comparative tests, samples of perindopril erbumine with different particle size were mixed with some common pharmaceutically acceptable excipients in binary or ternary mixtures. Pharmaceutical compositions, particularly tablets, with perindopril erbumine having different particle size were prepared as well. Binary and ternary mixtures and tablets were exposed to the stress condition, e.g. 60° C. for 14 days or 40° C./75% relative humidity for 1 month.
Samples of perindopril erbumine having large or small particles were mixed with colloidal anhydrous silicon dioxide (Aerosil) into the binary mixtures having a ratio perindopril erbumine:Aerosil=15:1. Binary mixtures were closed into vials and exposed to the stress condition of 60° C. for 14 days.

[4] = Stress stability of ternary mixture perindopril erbumine:Avicel:Syloid 2:10:1, HPLC degradation products; conditions: ternary mixture with Avicel and Syloid 2:10:1
Experimental: as §2
Samples of perindopril erbumine having large or small particles were mixed with microcrystalline cellulose (Avicel) and micronized silicon dioxide (Syloid) into the ternary mixtures having ratio perindopril erbumine:Avicel:Syloid=2:10:1. Ternary mixtures were exposed to the stress condition of 40° C./75% relative humidity for 1 month.

[5] = Stress stability of ternary mixture perindopril erbumine:anhydrous lactose:Syloid 2:10:1, HPLC degradation products; conditions: ternary mixture with anhydrous lactose and Syloid 2:10:1
Experimental: as §2
Samples of perindopril erbumine having large or small particles were mixed with anhydrous lactose and micronized silicon dioxide (Syloid) into the ternary mixtures having ratio perindopril erbumine:anhydrous lactose:Syloid=2:10:1. Ternary mixtures were exposed to the stress condition of 40° C./75% relative humidity for 1 month.

[6] = Stress stability of tablets of Example 6, HPLC degradation products
Experimental: as §2
Samples of perindopril erbumine having large or small particles were mixed with selected pharmaceutical excipients in stated ratio:
Mixture was homogenized and pressed into the tablets. The amount of the perindopril erbumine in the tablets was defined by the mass of the tablet. Tablet could contain 2, 4 or 8 mg of perindopril erbumine.
Tablets were exposed to the stress condition of 60° C. for 14 days and 40° C./75% relative humidity for 1 month.

[7] = Comparative stress tests of perindopril erbumine of different particle size with excipients; conditions: in comparison to perindopril erbumine having small particles; regardless of excipients or testing conditions
Experimental: During the development of the stable pharmaceutical composition of perindopril erbumine comparative tests were performed to investigate effects of various pharmaceutically acceptable excipients e.g. fillers, disintegrants and glidants, and different particle size of perindopril erbumine on the stability of perindopril erbumine.
as §2

Row | SMILES | impurity B ([1]; 60° C., 14 days) | impurity F ([1]; 60° C., 14 days) | sum of impurities ([1]; 60° C., 14 days) | impurity B ([1]; beginning) | impurity F ([1]; beginning) | sum of impurities ([1]; beginning) | impurity B ([2]; 60° C., 14 days) | impurity F ([2]; 60° C., 14 days) | sum of impurities ([2]; 60° C., 14 days) | impurity B ([2]; beginning) | impurity F ([2]; beginning) | sum of impurities ([2]; beginning) | impurity B ([3]; 60° C., 14 days) | impurity F ([3]; 60° C., 14 days) | sum of impurities ([3]; 60° C., 14 days) | impurity B ([3]; beginning) | impurity F ([3]; beginning) | sum of impurities ([3]; beginning) | impurity B ([4]; 40° C./75% RH, 1 month) | impurity F ([4]; 40° C./75% RH, 1 month) | further results
1 | CCC[C@H](N[C@@H](C)C(=O)N1[C@H](C(=O)O)C[C@@H]2CCCC[C@@H]21)C(=O)OCC [perindopril erbumine - large particles, perindopril erbumine] | <0.05% | 0.07% | 0.07% | <0.05% | <0.05% | <0.05% | <0.05% | 0.13% | 0.13% | <0.05% | <0.05% | <0.05% | <0.05% | 0.08% | 0.08% | <0.05% | <0.05% | <0.05% | 0.05% | 0.18% | sum of impurities ([4]; 40° C./75% RH, 1 month): 0.29%; impurity B ([4]; beginning): <0.05%; impurity F ([4]; beginning): <0.05%; sum of impurities ([4]; beginning): 0.11%; impurity B ([5]; 40° C./75% RH, 1 month): 1.09%; impurity F ([5]; 40° C./75% RH, 1 month): 0.70%; sum of impurities ([5]; 40° C./75% RH, 1 month): 1.92%; impurity B ([5]; beginning): <0.05%; impurity F ([5]; beginning): <0.05%; sum of impurities ([5]; beginning): 0.10%; impurity B ([6]; 40° C./75% RH, 1 month): 0.13%; impurity F ([6]; 40° C./75% RH, 1 month): 0.28%; sum of impurities ([6]; 40° C./75% RH, 1 month): 0.41%; impurity B ([6]; 60° C., 14 days): 0.56%; impurity F ([6]; 60° C., 14 days): 0.63%; sum of impurities ([6]; 60° C., 14 days): 1.40%; impurity B ([6]; beginning): <0.05%; impurity F ([6]; beginning): 0.07%; sum of impurities ([6]; beginning): 0.07%; degradation of perindopril erbumine [7]: smaller
2 | CCC[C@H](N[C@@H](C)C(=O)N1[C@H](C(=O)O)C[C@@H]2CCCC[C@@H]21)C(=O)OCC [perindopril erbumine - small particles, perindopril erbumine] | <0.05% | 0.74% | 0.81% | <0.05% | <0.05% | <0.05% | <0.05% | 0.77% | 0.88% | <0.05% | <0.05% | <0.05% | <0.05% | 0.80% | 0.80% | <0.05% | <0.05% | <0.05% | 0.14% | 0.17% | sum of impurities ([4]; 40° C./75% RH, 1 month): 0.36%; impurity B ([4]; beginning): <0.05%; impurity F ([4]; beginning): <0.05%; sum of impurities ([4]; beginning): 0.11%; impurity B ([5]; 40° C./75% RH, 1 month): 1.24%; impurity F ([5]; 40° C./75% RH, 1 month): 1.35%; sum of impurities ([5]; 40° C./75% RH, 1 month): 2.75%; impurity B ([5]; beginning): <0.05%; impurity F ([5]; beginning): <0.05%; sum of impurities ([5]; beginning): 0.10%; impurity B ([6]; 40° C./75% RH, 1 month): 0.09%; impurity F ([6]; 40° C./75% RH, 1 month): 0.51%; sum of impurities ([6]; 40° C./75% RH, 1 month): 0.65%; impurity B ([6]; 60° C., 14 days): 0.27%; impurity F ([6]; 60° C., 14 days): 0.96%; sum of impurities ([6]; 60° C., 14 days): 1.79%; impurity B ([6]; beginning): <0.05%; impurity F ([6]; beginning): <0.05%; sum of impurities ([6]; beginning): 0.05%
